Measurements reported in PubChem BioAssay (NCI).
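Exposure lasted 48 hours, with cells grown in 96-well plates and compounds tested at five concentrations. GI50: concentration for 50% inhibition of growth. Definition used: TGI = concentration required for complete inhibition of growth.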

Columns and labels:
Assay in all cases: inhibition of tumour cell growth, NCI panel, 48 h
786-0 renal = system: 786-0 renal
A498 renal = system: A498 renal
A549 NSCLC = system: A549 NSCLC
ACHN renal = system: ACHN renal
BT-549 breast = system: BT-549 breast
CAKI-1 renal = system: CAKI-1 renal
CCRF-CEM leukemia = system: CCRF-CEM leukemia
COLO 205 colon = system: COLO 205 colon
DU-145 prostate = system: DU-145 prostate
EKVX NSCLC = system: EKVX NSCLC
HCC-2998 colon = system: HCC-2998 colon
HCT-116 colon = system: HCT-116 colon
HCT-15 colon = system: HCT-15 colon
HL-60(TB) leukemia = system: HL-60(TB) leukemia
HOP-62 NSCLC = system: HOP-62 NSCLC
HOP-92 NSCLC = system: HOP-92 NSCLC
HS 578T breast = system: HS 578T breast
HT29 colon = system: HT29 colon
IGROV1 ovarian = system: IGROV1 ovarian
K-562 leukemia = system: K-562 leukemia
KM12 colon = system: KM12 colon
LOX IMVI melanoma = system: LOX IMVI melanoma
M14 melanoma = system: M14 melanoma
MALME-3M melanoma = system: MALME-3M melanoma
MCF7 breast = system: MCF7 breast
MDA-MB-231 breast = system: MDA-MB-231 breast
MDA-MB-435 = system: MDA-MB-435
MDA-N = system: MDA-N
MOLT-4 leukemia = system: MOLT-4 leukemia
NCI-H226 lung = system: NCI-H226 lung
NCI-H23 lung = system: NCI-H23 lung
NCI-H460 lung = system: NCI-H460 lung
NCI-H522 lung = system: NCI-H522 lung
NCI/ADR-RES ovarian = system: NCI/ADR-RES ovarian
OVCAR-3 ovarian = system: OVCAR-3 ovarian
OVCAR-4 ovarian = system: OVCAR-4 ovarian
OVCAR-5 ovarian = system: OVCAR-5 ovarian
OVCAR-8 ovarian = system: OVCAR-8 ovarian
PC-3 prostate = system: PC-3 prostate
RPMI-8226 leukemia = system: RPMI-8226 leukemia
RXF 393 renal = system: RXF 393 renal
SF-268 CNS = system: SF-268 CNS
SF-295 CNS = system: SF-295 CNS
SF-539 CNS = system: SF-539 CNS
SK-MEL-2 melanoma = system: SK-MEL-2 melanoma
SK-MEL-28 melanoma = system: SK-MEL-28 melanoma
SK-MEL-5 melanoma = system: SK-MEL-5 melanoma
SK-OV-3 ovarian = system: SK-OV-3 ovarian
SN12C renal = system: SN12C renal
SNB-19 CNS = system: SNB-19 CNS
SNB-75 CNS = system: SNB-75 CNS
SR leukemia = system: SR leukemia
SW-620 colon = system: SW-620 colon
T-47D breast = system: T-47D breast
TK-10 renal = system: TK-10 renal
U251 CNS = system: U251 CNS
UACC-257 melanoma = system: UACC-257 melanoma
UACC-62 melanoma = system: UACC-62 melanoma
UO-31 renal = system: UO-31 renal

**Q.** Which results are given for `CC[C@@]1(O)C(=O)NCc2c1cc1n(c2=O)Cc2cc3c(NC(C)=O)cccc3nc2-1`?
**A.** GI50 (786-0 renal): > 100 µM; TGI (786-0 renal): > 100 µM; GI50 (A498 renal): > 100 µM; TGI (A498 renal): > 100 µM; GI50 (A549 NSCLC): > 100 µM; TGI (A549 NSCLC): > 100 µM; GI50 (ACHN renal): > 100 µM; TGI (ACHN renal): > 100 µM; GI50 (BT-549 breast): > 100 µM; TGI (BT-549 breast): > 100 µM; GI50 (CAKI-1 renal): > 100 µM; TGI (CAKI-1 renal): > 100 µM; GI50 (CCRF-CEM leukemia): > 100 µM; TGI (CCRF-CEM leukemia): > 100 µM; GI50 (COLO 205 colon): > 100 µM; TGI (COLO 205 colon): > 100 µM; GI50 (DU-145 prostate): > 100 µM; TGI (DU-145 prostate): > 100 µM; GI50 (EKVX NSCLC): > 100 µM; TGI (EKVX NSCLC): > 100 µM; GI50 (HCC-2998 colon): > 100 µM; TGI (HCC-2998 colon): > 100 µM; GI50 (HCT-116 colon): > 100 µM; TGI (HCT-116 colon): > 100 µM; GI50 (HCT-15 colon): > 100 µM; TGI (HCT-15 colon): > 100 µM; GI50 (HL-60(TB) leukemia): > 100 µM; TGI (HL-60(TB) leukemia): > 100 µM; GI50 (HOP-62 NSCLC): > 100 µM; TGI (HOP-62 NSCLC): > 100 µM; GI50 (HOP-92 NSCLC): > 100 µM; TGI (HOP-92 NSCLC): > 100 µM; GI50 (HS 578T breast): > 100 µM; TGI (HS 578T breast): > 100 µM; GI50 (HT29 colon): > 100 µM; TGI (HT29 colon): > 100 µM; GI50 (IGROV1 ovarian): > 100 µM; TGI (IGROV1 ovarian): > 100 µM; GI50 (K-562 leukemia): > 100 µM; TGI (K-562 leukemia): > 100 µM; GI50 (KM12 colon): > 100 µM; TGI (KM12 colon): > 100 µM; GI50 (LOX IMVI melanoma): > 100 µM; TGI (LOX IMVI melanoma): > 100 µM; GI50 (M14 melanoma): > 100 µM; TGI (M14 melanoma): > 100 µM; GI50 (MALME-3M melanoma): > 100 µM; TGI (MALME-3M melanoma): > 100 µM; GI50 (MCF7 breast): > 100 µM; TGI (MCF7 breast): > 100 µM; GI50 (MDA-MB-231 breast): > 100 µM; TGI (MDA-MB-231 breast): > 100 µM; GI50 (MDA-MB-435): > 100 µM; TGI (MDA-MB-435): > 100 µM; GI50 (MDA-N): > 100 µM; TGI (MDA-N): > 100 µM; GI50 (MOLT-4 leukemia): > 100 µM; TGI (MOLT-4 leukemia): > 100 µM; GI50 (NCI-H226 lung): > 100 µM; TGI (NCI-H226 lung): > 100 µM; GI50 (NCI-H23 lung): > 100 µM; TGI (NCI-H23 lung): > 100 µM; GI50 (NCI-H460 lung): > 100 µM; TGI (NCI-H460 lung): > 100 µM; GI50 (NCI-H522 lung): > 100 µM; TGI (NCI-H522 lung): > 100 µM; GI50 (NCI/ADR-RES ovarian): > 100 µM; TGI (NCI/ADR-RES ovarian): > 100 µM; GI50 (OVCAR-3 ovarian): > 100 µM; TGI (OVCAR-3 ovarian): > 100 µM; GI50 (OVCAR-4 ovarian): > 100 µM; TGI (OVCAR-4 ovarian): > 100 µM; GI50 (OVCAR-5 ovarian): > 100 µM; TGI (OVCAR-5 ovarian): > 100 µM; GI50 (OVCAR-8 ovarian): > 100 µM; TGI (OVCAR-8 ovarian): > 100 µM; GI50 (PC-3 prostate): > 100 µM; TGI (PC-3 prostate): > 100 µM; GI50 (RPMI-8226 leukemia): > 30.3 µM; TGI (RPMI-8226 leukemia): > 100 µM; GI50 (RXF 393 renal): > 100 µM; TGI (RXF 393 renal): > 100 µM; GI50 (SF-268 CNS): > 100 µM; TGI (SF-268 CNS): > 100 µM; GI50 (SF-295 CNS): > 100 µM; TGI (SF-295 CNS): > 100 µM; GI50 (SF-539 CNS): > 100 µM; TGI (SF-539 CNS): > 100 µM; GI50 (SK-MEL-2 melanoma): > 100 µM; TGI (SK-MEL-2 melanoma): > 100 µM; GI50 (SK-MEL-28 melanoma): > 100 µM; TGI (SK-MEL-28 melanoma): > 100 µM; GI50 (SK-MEL-5 melanoma): > 100 µM; TGI (SK-MEL-5 melanoma): > 100 µM; GI50 (SK-OV-3 ovarian): > 100 µM; TGI (SK-OV-3 ovarian): > 100 µM; GI50 (SN12C renal): > 100 µM; TGI (SN12C renal): > 100 µM; GI50 (SNB-19 CNS): > 100 µM; TGI (SNB-19 CNS): > 100 µM; GI50 (SNB-75 CNS): > 100 µM; TGI (SNB-75 CNS): > 100 µM; GI50 (SR leukemia): > 100 µM; TGI (SR leukemia): > 100 µM; GI50 (SW-620 colon): > 86.6 µM; TGI (SW-620 colon): > 100 µM; GI50 (T-47D breast): > 100 µM; TGI (T-47D breast): > 100 µM; GI50 (TK-10 renal): > 100 µM; TGI (TK-10 renal): > 100 µM; GI50 (U251 CNS): > 100 µM; TGI (U251 CNS): > 100 µM; GI50 (UACC-257 melanoma): > 100 µM; TGI (UACC-257 melanoma): > 100 µM; GI50 (UACC-62 melanoma): > 100 µM; TGI (UACC-62 melanoma): > 100 µM; GI50 (UO-31 renal): > 100 µM; TGI (UO-31 renal): > 100 µM
